{"source": "paper PMC12606247", "about": "“Bidirectional communication between nucleotide and substrate binding sites in a type IV multidrug ABC transporter” (Nature Communications, 2025)", "key": {"BmrA NBD [1]": {"molecular_target": "T1, BmrA NBD (Bacillus subtilis, UniProt O06967)", "T1 sequence (O06967 331-589)": "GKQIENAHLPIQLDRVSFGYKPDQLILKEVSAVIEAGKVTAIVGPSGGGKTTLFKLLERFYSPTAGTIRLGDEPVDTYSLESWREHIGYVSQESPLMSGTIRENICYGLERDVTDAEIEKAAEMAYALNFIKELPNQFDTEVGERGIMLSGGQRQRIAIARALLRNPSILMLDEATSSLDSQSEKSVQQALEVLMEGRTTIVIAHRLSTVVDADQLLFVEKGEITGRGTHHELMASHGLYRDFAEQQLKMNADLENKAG", "assay": "dissociation constant (method not stated in main text)", "format": "binding", "conditions": "read-out: KD, ADP"}, "LmrA NBD": {"molecular_target": "LmrA NBD (Lactococcus cremoris, UniProt P97046)", "sequence (P97046 330-590)": "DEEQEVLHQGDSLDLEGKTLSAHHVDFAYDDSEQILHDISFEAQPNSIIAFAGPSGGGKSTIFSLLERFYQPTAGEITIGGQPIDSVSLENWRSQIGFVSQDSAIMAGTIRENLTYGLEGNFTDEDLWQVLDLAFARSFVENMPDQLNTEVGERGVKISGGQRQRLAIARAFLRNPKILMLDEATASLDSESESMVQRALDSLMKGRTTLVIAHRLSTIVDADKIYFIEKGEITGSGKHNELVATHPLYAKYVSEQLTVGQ", "assay": "1H, […]-HSQC NMR chemical shift perturbation", "format": "binding", "conditions": "50 mM BisTris pH 7, 50 mM NaCl, 298 K"}, "MsbA NBD": {"molecular_target": "MsbA NBD (Escherichia coli, UniProt P60752)", "sequence (P60752 323-582)": "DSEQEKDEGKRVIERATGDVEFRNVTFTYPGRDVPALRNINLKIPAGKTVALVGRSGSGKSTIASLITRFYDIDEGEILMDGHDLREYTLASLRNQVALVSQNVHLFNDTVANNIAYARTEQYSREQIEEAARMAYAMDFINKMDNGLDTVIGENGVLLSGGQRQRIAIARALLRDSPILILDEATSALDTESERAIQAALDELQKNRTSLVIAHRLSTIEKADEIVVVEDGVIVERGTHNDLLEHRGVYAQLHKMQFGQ", "assay": "1H, […]-HSQC NMR chemical shift perturbation", "format": "binding", "conditions": "50 mM BisTris pH 7, 50 mM NaCl, 298 K"}, "BmrA NBD [2]": {"molecular_target": "BmrA NBD (Bacillus subtilis, UniProt O06967, R389M)", "sequence (O06967 331-589 R389M)": "as the sequence (O06967 331-589) above, with R59M counted along it", "assay": "biochemical"}, "BmrA NBD [3]": {"molecular_target": "BmrA NBD (Bacillus subtilis, UniProt O06967, K380A)", "sequence (O06967 331-589 K380A)": "as the sequence (O06967 331-589) above, with K50A counted along it", "assay": "biochemical"}, "BmrA NBD [4]": {"molecular_target": "BmrA NBD (Bacillus subtilis, UniProt O06967, R414A)", "sequence (O06967 331-589 R414A)": "as the sequence (O06967 331-589) above, with R84A counted along it", "assay": "biochemical"}, "BmrA NBD [5]": {"molecular_target": "BmrA NBD (Bacillus subtilis, UniProt O06967, W413F)", "sequence (O06967 331-589 W413F)": "as the sequence (O06967 331-589) above, with W83F counted along it", "assay": "biochemical"}, "BmrA NBD [6]": {"molecular_target": "BmrA NBD (Bacillus subtilis, UniProt O06967, R414K)", "sequence (O06967 331-589 R414K)": "as the sequence (O06967 331-589) above, with R84K counted along it", "assay": "biochemical"}, "BmrA NBD [7]": {"molecular_target": "BmrA NBD (Bacillus subtilis, UniProt O06967, R389K)", "sequence (O06967 331-589 R389K)": "as the sequence (O06967 331-589) above, with R59K counted along it", "assay": "biochemical"}, "BmrA NBD [8]": {"molecular_target": "T1, BmrA NBD", "assay": "1H, […]-HSQC NMR chemical shift perturbation", "format": "binding", "conditions": "10 mM ATP, 50 mM BisTris pH 7, 50 mM NaCl, 298 K"}, "BmrA full-length [9]": {"molecular_target": "T2, BmrA full-length (Bacillus subtilis, UniProt O06967)", "T2 construct": "full-length half transporter, C-terminal His6 tag, E. coli C41(DE3); homodimer in DDM/cholate, MSP1E3D1 nanodiscs or inside-out vesicles", "assay": "ATPase assay coupled to NADH oxidation (also […] NMR)", "format": "biochemical", "conditions": "10 mM MgCl2, pH 8, 37 °C; detergent, nanodiscs or liposomes"}, "BmrA full-length [10]": {"molecular_target": "T2, BmrA full-length", "assay": "HDX-MS (also fluorescence transport assay in inside-out vesicles)", "format": "binding", "conditions": "100 μM doxorubicin, nanodiscs, pD 8.0, 20 °C"}, "BmrA full-length [11]": {"molecular_target": "T2, BmrA full-length", "assay": "[…] NMR of 5-fluorotryptophan-labelled protein (W413 line broadening)", "format": "binding", "conditions": "15 mM reserpine, MSP1E3D1 nanodiscs, E. coli polar lipids, 298 K"}}, "data": [{"smiles": "Nc1ncnc2c1ncn2[C@@H]1O[C@H](COP(=O)(O)OP(=O)(O)O)[C@@H](O)[C@H]1O", "note": "[ADP]", "values": [{"measurement": "Kd", "setting": "BmrA NBD [1]", "result": "214 ± 43", "unit": "µM"}, {"measurement": "1H,15N-HSQC NMR chemical shift perturbation", "setting": "LmrA NBD; 10 mM ADP", "result": "(BmrA W413, LmrA W421, MsbA L415) responded to the addition of ATP or ADP"}, {"measurement": "1H,15N-HSQC NMR chemical shift perturbation", "setting": "MsbA NBD; 10 mM ADP", "result": "(BmrA W413, LmrA W421, MsbA L415) responded to the addition of ATP or ADP"}, {"measurement": "Kd", "setting": "BmrA NBD [2]", "result": "2890 ± 1460", "unit": "µM"}, {"measurement": "Kd", "setting": "BmrA NBD [3]", "result": "14400 ± 3700", "unit": "µM"}, {"measurement": "Kd", "setting": "BmrA NBD [4]", "result": "575 ± 43.5", "unit": "µM"}, {"measurement": "Kd", "setting": "BmrA NBD [5]", "result": "221 ± 54", "unit": "µM"}, {"measurement": "Kd", "setting": "BmrA NBD [6]", "result": "266 ± 97", "unit": "µM"}, {"measurement": "Kd", "setting": "BmrA NBD [7]", "result": "221 ± 105", "unit": "µM"}]}, {"smiles": "Nc1ncnc2c1ncn2[C@@H]1O[C@H](COP(=O)(O)OP(=O)(O)OP(=O)(O)O)[C@@H](O)[C@H]1O", "note": "[ATP]", "values": [{"measurement": "1H,15N-HSQC NMR chemical shift perturbation", "setting": "LmrA NBD; 10 mM ATP", "result": "(BmrA W413, LmrA W421, MsbA L415) responded to the addition of ATP or ADP"}, {"measurement": "1H,15N-HSQC NMR chemical shift perturbation", "setting": "BmrA NBD [8]", "result": "(BmrA W413, LmrA W421, MsbA L415) responded to the addition of ATP or ADP"}, {"measurement": "1H,15N-HSQC NMR chemical shift perturbation", "setting": "MsbA NBD; 10 mM ATP", "result": "(BmrA W413, LmrA W421, MsbA L415) responded to the addition of ATP or ADP"}, {"measurement": "ATPase assay coupled to NADH oxidation (also 19F NMR)", "setting": "BmrA full-length [9]", "result": "ATPase activity of purified BmrA full-length WT, K380A and hinge mutant constructs was determined"}]}, {"smiles": "COc1cccc2c1C(=O)c1c(O)c3c(c(O)c1C2=O)C[C@@](O)(C(=O)CO)C[C@@H]3O[C@H]1C[C@H](N)[C@H](O)[C@H](C)O1", "note": "[doxorubicin]", "values": [{"measurement": "HDX-MS (also fluorescence transport assay in inside-out vesicles)", "setting": "BmrA full-length [10]", "result": "in the absence and presence of doxorubicin showed decreased exchange in the TMD"}]}, {"smiles": "COC(=O)[C@H]1[C@H]2C[C@@H]3c4[nH]c5cc(OC)ccc5c4CCN3C[C@H]2C[C@@H](OC(=O)c2cc(OC)c(OC)c(OC)c2)[C@@H]1OC", "note": "[reserpine]", "values": [{"measurement": "19F NMR of 5-fluorotryptophan-labelled protein (W413 line broadening)", "setting": "BmrA full-length [11]", "result": "Addition of ATP or the substrate reserpine resulted in changes in chemical shift and linewidths"}]}]}
